From ChEMBL document CHEMBL5252509, “In depth analysis of kinase cross screening data to identify chemical starting points for inhibition of the Nek family of kinases” (Medchemcomm, 2018)

Experiments:
[1] = molecular target: T1, Serine/threonine-protein kinase Nek5 (Homo sapiens) (UniProt Q6P3R8); assay: Inhibition of NEK5 (unknown origin) at 10 uM relative to control
T1 sequence (whole entry): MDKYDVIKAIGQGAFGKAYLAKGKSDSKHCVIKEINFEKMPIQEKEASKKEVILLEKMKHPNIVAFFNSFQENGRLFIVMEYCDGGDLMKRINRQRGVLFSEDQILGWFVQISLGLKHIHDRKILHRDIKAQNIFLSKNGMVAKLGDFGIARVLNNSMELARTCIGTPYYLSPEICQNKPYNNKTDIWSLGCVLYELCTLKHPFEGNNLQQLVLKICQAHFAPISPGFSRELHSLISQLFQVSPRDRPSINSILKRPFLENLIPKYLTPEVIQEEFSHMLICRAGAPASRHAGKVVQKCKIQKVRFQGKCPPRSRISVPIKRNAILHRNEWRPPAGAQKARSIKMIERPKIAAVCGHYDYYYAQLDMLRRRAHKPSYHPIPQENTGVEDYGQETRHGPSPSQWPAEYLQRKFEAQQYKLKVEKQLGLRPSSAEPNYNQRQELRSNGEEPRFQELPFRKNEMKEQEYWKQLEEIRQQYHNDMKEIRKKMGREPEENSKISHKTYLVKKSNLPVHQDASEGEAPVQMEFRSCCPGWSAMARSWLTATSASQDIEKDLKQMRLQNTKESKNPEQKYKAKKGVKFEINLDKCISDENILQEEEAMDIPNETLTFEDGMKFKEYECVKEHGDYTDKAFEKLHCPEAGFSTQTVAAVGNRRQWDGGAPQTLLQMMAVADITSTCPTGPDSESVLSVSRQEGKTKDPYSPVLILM

[2] = molecular target: T2, Eukaryotic translation initiation factor 2-alpha kinase 3 (Homo sapiens, UniProt Q9NZJ5); assay: Inhibition of PERK (unknown origin)
T2 sequence (Q9NZJ5 whole entry): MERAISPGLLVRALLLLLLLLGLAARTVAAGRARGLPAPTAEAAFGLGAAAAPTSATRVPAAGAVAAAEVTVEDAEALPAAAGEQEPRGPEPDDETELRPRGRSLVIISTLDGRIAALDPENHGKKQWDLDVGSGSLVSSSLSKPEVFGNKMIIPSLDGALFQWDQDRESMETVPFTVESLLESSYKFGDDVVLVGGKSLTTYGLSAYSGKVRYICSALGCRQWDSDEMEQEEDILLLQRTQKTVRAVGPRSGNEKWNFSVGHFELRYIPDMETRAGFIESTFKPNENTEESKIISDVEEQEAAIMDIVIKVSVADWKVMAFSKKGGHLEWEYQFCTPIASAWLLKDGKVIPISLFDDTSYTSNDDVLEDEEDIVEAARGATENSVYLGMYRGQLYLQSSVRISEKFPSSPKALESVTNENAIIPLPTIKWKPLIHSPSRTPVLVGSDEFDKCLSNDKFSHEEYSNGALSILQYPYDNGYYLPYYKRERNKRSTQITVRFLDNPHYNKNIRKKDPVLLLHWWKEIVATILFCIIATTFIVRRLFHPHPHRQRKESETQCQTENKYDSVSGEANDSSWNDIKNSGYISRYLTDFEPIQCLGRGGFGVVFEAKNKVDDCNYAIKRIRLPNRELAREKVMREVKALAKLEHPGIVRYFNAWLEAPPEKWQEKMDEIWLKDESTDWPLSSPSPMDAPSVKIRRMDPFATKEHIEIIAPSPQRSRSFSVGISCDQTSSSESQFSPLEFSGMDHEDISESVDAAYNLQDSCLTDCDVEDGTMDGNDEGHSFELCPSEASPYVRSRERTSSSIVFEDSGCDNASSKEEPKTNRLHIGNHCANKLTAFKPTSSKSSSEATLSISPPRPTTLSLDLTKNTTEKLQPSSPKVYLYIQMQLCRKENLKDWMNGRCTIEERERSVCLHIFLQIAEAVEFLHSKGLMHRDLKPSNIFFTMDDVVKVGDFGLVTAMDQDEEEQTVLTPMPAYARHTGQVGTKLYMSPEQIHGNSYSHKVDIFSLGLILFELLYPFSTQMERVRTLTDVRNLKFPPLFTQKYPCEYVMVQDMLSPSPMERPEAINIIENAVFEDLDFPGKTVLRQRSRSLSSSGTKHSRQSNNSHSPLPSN

[3] = molecular target: Serine/threonine-protein kinase Nek5 (Homo sapiens, UniProt Q6P3R8); assay: Inhibition of NEK5 (unknown origin) assessed as dissociation constant
[4] = molecular target: Mitogen-activated protein kinase 8 (Homo sapiens, UniProt P45983); assay: Inhibition of JNK1 (unknown origin)
Mitogen-activated protein kinase 8, sequence (P45983 whole entry): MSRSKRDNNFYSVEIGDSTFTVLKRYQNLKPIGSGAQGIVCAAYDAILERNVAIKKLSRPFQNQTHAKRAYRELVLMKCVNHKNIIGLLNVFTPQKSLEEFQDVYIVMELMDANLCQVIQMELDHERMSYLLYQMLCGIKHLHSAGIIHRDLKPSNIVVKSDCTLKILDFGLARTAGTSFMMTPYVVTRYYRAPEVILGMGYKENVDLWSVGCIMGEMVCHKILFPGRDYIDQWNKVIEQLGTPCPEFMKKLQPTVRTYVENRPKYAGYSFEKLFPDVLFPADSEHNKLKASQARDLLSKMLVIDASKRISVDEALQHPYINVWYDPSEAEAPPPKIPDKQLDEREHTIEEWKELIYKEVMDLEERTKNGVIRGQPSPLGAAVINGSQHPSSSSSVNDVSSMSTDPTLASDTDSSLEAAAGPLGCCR

[5] = molecular target: T3, Serine/threonine-protein kinase Nek10 (Homo sapiens) (UniProt Q6ZWH5); assay: Inhibition of NEK10 (unknown origin) at 10 uM relative to control
T3 sequence (whole entry): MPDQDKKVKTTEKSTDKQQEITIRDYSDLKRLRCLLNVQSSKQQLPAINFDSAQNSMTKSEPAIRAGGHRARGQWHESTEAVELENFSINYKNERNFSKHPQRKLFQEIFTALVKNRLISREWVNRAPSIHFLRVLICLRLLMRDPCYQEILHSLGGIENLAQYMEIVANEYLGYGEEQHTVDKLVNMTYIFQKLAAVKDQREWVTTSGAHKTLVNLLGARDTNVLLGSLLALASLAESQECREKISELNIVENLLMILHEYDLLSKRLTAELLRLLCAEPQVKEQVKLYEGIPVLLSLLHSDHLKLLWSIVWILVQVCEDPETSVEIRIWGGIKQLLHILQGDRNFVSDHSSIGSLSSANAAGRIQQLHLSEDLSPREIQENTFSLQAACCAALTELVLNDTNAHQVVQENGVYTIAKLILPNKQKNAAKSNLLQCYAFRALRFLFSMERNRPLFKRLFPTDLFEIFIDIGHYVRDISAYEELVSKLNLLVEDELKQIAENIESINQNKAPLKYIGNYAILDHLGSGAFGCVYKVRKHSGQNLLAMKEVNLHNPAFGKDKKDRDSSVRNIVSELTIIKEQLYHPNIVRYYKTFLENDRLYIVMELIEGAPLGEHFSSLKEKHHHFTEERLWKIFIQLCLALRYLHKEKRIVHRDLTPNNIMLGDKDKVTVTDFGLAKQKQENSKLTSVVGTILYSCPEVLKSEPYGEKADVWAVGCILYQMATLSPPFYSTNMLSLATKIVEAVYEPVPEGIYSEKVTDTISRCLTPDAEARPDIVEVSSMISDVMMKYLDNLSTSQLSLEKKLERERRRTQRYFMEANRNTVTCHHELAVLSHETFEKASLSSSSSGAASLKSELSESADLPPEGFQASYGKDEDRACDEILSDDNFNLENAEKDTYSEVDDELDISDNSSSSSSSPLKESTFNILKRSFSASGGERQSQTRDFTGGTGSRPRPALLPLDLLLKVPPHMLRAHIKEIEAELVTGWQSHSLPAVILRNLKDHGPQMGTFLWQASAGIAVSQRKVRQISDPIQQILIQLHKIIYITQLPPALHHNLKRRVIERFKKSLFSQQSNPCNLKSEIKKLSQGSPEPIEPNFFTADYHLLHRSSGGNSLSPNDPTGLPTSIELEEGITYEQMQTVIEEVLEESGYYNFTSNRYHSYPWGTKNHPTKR

| Compound | % control [1] [%] | IC50 [2] [nM] | other results |
| --- | --- | --- | --- |
| Fc1cc(-c2cc[nH]/c(=N/c3ccc(-n4cnc(N5CCOCC5)n4)cc3)n2)cc(N2CCOCC2)c1 | 1.4 | – | – |
| Nc1nccc2scc(-c3ccc4c(c3)CCN4C(=O)Cc3cc(F)ccc3F)c12 | – | < 15 | – |
| CN(C)C/C=C/C(=O)Nc1ccc(C(=O)Nc2cccc(Nc3nccc(-c4cccnc4)n3)c2)cc1 | 2.2 | – | – |
| Nc1ncc(-c2cn[nH]c2)c2scc(-c3ccc4c(c3)CCN4C(=O)Cc3ccccc3)c12 | – | < 15 | – |
| Nc1nccc2scc(-c3ccc4c(c3)CCN4C(=O)Cc3ccccc3)c12 | – | < 15 | – |
| COc1cc(Nc2ncc3c(C)nc(-c4cc5ccccc5[nH]4)n3n2)cc(OC)c1OC | – | – | Kd [3]: 730 nM |
| Cc1ccc(CC(=O)N2CCc3cc(-c4cn(C)c5ncnc(N)c45)ccc32)cc1 | – | 17 | – |
| CN(C)C/C=C/C(=O)Nc1cccc(C(=O)Nc2ccc(Nc3nccc(-c4c(-c5ccccc5)nn5ccccc45)n3)cc2)c1 | 98 | – | – |
| CN(C)C/C=C/C(=O)Nc1cccc(C(=O)Nc2ccc(Nc3nccc(-c4cccnc4)n3)cc2)c1 | 7.8 | – | IC50 [4]: 41 nM |
| O=C1NC(=O)/C(=C/c2ccc3nccc(-c4ccncc4)c3c2)S1 | 100 | – | % control [5]: 0% |
| CN(C)C/C=C/C(=O)Nc1cccc(C(=O)Nc2ccc(Nc3nccc(/C(C#N)=C4\Nc5ccccc5S4)n3)cc2)c1 | 100 | – | – |
| Cc1cc(NC(=O)c2cccc(NC(=O)/C=C/CN(C)C)c2)ccc1Nc1nccc(-c2cccnc2)n1 | 92 | – | – |
| Cn1cc(-c2cnc(N)c3c(-c4ccc5c(c4)CCN5C(=O)Cc4ccccc4)csc23)cn1 | – | < 15 | – |
| Cc1ccc(NC(=O)c2ccc(NC(=O)/C=C/CN(C)C)cc2)cc1Nc1nccc(-c2cccnc2)n1 | 51 | – | – |
